From patent publication US6710075B2, “Therapeutic compounds and methods” (The Government of the State of Sarawak, Malaysia, priority 2000, dated 2004) come the findings set out here.

Type in all cases: cell-based, human
Data set [1] relates to A549 cells. Briefly: Senescence-associated β-galactosidase (SA-β-gal) activity staining. Particulars: A549, 10-50 nM, 10 days. As to the method: A549 cells were seeded at 10,000 cell/well in 6 well plates in the presence or absence of varying concentrations of Compound A (10-50 nM) or 250 nM doxorubicin for 10 days prior to their processing and staining overnight for senescence-associated β-galactosidase activity as described previously (Dimri et al., 1995, Proc Natl Acad Sci USA 1995 92(20):9363-7). […] PC, phase contrast microscopy. BF, bright field microscopy Magnification×200.
This was evaluated further by measuring senescence-associated β-galactosidase (SA-β-gal) activity, a biomarker previously described to correlate well with senescence of human cells (Dimri et al., Proc Natl Acad Sci USA 1995 92(20):9363-7). […] Therefore, in addition to Compound A A549 cells were also treated with doxorubicin as an experimental control.

Data set [2] concerns A549 cells. Briefly: DNA synthesis, [14C]-thymidine uptake, A549 cells. To be noted: Homo sapiens, A549, 72 h. The source says:
(§1) (a) Compounds A and B were identified from a bark sample of Aglaia leptantha through their ability to inhibit production of Tumour Necrosis Factor-α (TNF-α) by THP-1 human promonocytic leukemia cells (Tsuchiya, et al, Int. J. Cancer, 1980, 26(2):171-6) activated with lipopolysaccharide (LPS). Table 4 summarises the results comparing the activity of Compounds A and B for inhibition of TNF-α production to their effects on general cell metabolism measured using WST-1 reduction, DNA synthesis and protein synthesis assays for THP-1 cells. […] For comparison, the effects of Compounds A and B on A549 lung epithelial carcinoma cells (Leiber et al, Int. J. Cancer, 1976, 17(1)-62-70) were also measured and the data is also included in Table 4.

Data set [3] deals with A549 cells. Kind of data set: Effect on camptothecin- and paclitaxel-induced cytotoxicity, YOYO-1 exclusion. To be noted: A549, 10 nM Compound A, 3 days, drugs at up to 2000-fold excess. The protocol:
A549 cells in 96 well plates were cultured for 3 days in the presence or absence of 10 nM Compound A together with the indicated concentrations of (A) camptothecin or (B) paclitaxel. Loss of membrane integrity was then assessed by the addition of the fluorescent DNA-binding dye YOYO-1 and the increased fluorescence accompanying cell death measured using a fluorescent plate reader.
To further examine the cell cycle effects of Compound A a cytostatic concentration of this compound was combined together with other anti-cancer agents known to act at specific points in the cell cycle to see if Compound A could perturb their cell cycle-dependent effects. Cell viability was assayed after 3 days by measuring exclusion of the fluorescent DNA-binding dye YOYO-1. (Becker et al., Anal Biochem, 1994, 221(1):78-84). A549 cells were treated with 10 nM non-cytotoxic dose of Compound A in the presence of increasing concentrations of camptothecin and paclitaxel. Camptothecin is an inhibitor of DNA topoisomerase 1, an enzyme required for DNA replication, and results in pertubation of the S phase of the cell cycle with subsequent cell death due to activation of an S phase checkpoint (Darzynkiewicz et al., Ann N Y Acad Sci, 1996, 803:93-100). […]

The subject of data set [4] is THP-1 cells. Kind of data set: Acute DNA synthesis inhibition, [14C] thymidine incorporation, THP-1 cells. Particulars: 1 hour pretreatment + 2 hours label.
Data set [5] deals with THP-1 monocytic leukemia cells. Briefly: Differentiation of THP-1 leukemic cells, morphology by phase contrast microscopy. To be noted: THP-1, 10 nM, prolonged exposure (4 days). As to the method:
THP-1 cells were cultured for 4 days in the presence or absence of 10 nM Compound A as indicated. Where shown cells were also treated with IFNγ (100 ng/ml) (3 days) or with PMA (0.1 μM) (4 days) in the presence or absence of Compound A. Images are of cells visualised by phase contrast microscopy (magnification×200).
This is a morphology highly characteristic of mature macrophages and similar morphological effects were observed when the cells were treated with other known inducers of macrophage differentiation including interferon-γ (IFNγ) or phorbol 12-myristate 13-acetate (PMA). To investigate this further the effects of Compound A on HL60 human promyelocytic leukemic cells (Collins, et al, Nature, 1977, 270:347-9) were examined (Table 11). This widely used cell line is well characterised as a model of human myelomonocytic differentiation (Collins, Blood, 1987, 70(5):1233-44). In this experiment monocytic differentiation was quantitated by measuring CD14 surface antigen expression by flow cytometric analysis CD14, all LPS-binding protein, is expressed on the surface of cells of the myelomonocytic lineage and is normally expressed at very low levels in undifferentiated HL60 cells (Ferrero et al., Blood, 1983, 61(1):171-9).

The subject of data set [6] is THP-1 cells. Briefly: WST-1 reduction by THP-1 cells. Particulars: Homo sapiens.
From the text: as §1
(Tetrazolium dyes change colour on reduction, which living cells bring about.)

The test system of data set [7] is A549 cells. Kind of data set: Reversibility of cytostatic effect in A549 cells after removal of compound. Particulars: A549, 10 nM for 5 days, then 4 days without compound. The protocol:
A549 cells were seeded at ˜10,000 cells/well and cultured in the presence of the indicted concentrations of Compound A or paclitaxel and the viable cell numbers determined by haemocytometer counting of trypan blue stained cells at the various times. On day 5 some of the cells were washed, resuspended in fresh medium lacking the various treatments and cultured for another 4 days prior to counting.
The reversibility of the effects of Compound A was determined. For this, A549 cells remained untreated or were cultured in the presence of various concentrations of Compound A or with paclitaxel for 5 days prior to removal of the compounds and the cells cultured for a further 4 days prior to determining cell number (FIG. 6). […] The effects of treatments which were deleterious to the cells, such as higher concentrations of Compound A or the presence of paclitaxel, were not reversed upon their removal.

The test system of data set [8] is THP-1 cells. Kind of data set: DNA synthesis, [14C]-thymidine uptake, THP-1 cells. To be noted: 48 hours.
From the text: as §1

What is called IC50 is the concentration at which inhibition is half-maximal. Regarding `COC(=O)[C@H]1[C@@H](O)[C@@]2(O)c3c(OC)cc(OC4OC(C(O)CO)COC4OC)cc3O[C@@]2(c2ccc(OC)cc2)[C@@H]1c1ccccc1` (single isomer, unassigned) [Compound A], the SA-β-gal activity entry in data set [1] was “failed to induce SA-β-gal activity”. Also, the half-inhibitory concentration (IC50) in data set [2] is 7 nM; in data set [4] (Homo sapiens, THP-1, THP-1 cells), about 70 nM; in data set [4] (THP-1 cells) it was 72 nM; in data set [6] (THP-1, 18 h, THP-1 cells, 18 hours of culture, read-out: IC50 WST-1 Reduction), 30 nM; in data set [6] (THP-1, 72 h, THP-1 leukemic cells, cultured with compound for 3 days, read-out: IC50 (reduction of WST-1)), 2 nM; in data set [8], 15 nM. Also, the “effect on cytotoxicity of camptothecin and paclitaxel” value in data set [3] is “significantly reduced the cytotoxic effects of both camptothecin and paclitaxel”. Also, the “morphology (macrophage differentiation)” value in data set [5] was “accumulation of cells that adhered to the plastic and exhibited numerous pseudopodia”. The “cell number after removal of compound” value in data set [7] is reported as “over a five-fold increase in cell number”. In addition, the “population doublings after removal of compound” value in data set [7] is 2-3.
